According to paper PMC11005685, “Identification of Potent siRNA Delivery Peptides Using Computer Modeling” (Advanced Science, 2024):

Key:
mouse lung cells = assay: scRNA-seq of lung after vector injection; assay type: in vivo
Experimental: (§1) Freshly tissues were washed in Hanks’ balanced salt solution, and cut into small pieces on ice, then digested with collagenase I and IV. After incubated for 30 min at 37°C with continuous shaking. The shredded tissues were filtered the 70 µm nylon mesh, and the obtained cells were centrifuged at 4°C. Red blood lysis buffer added in pelleted cells and shaked up and down 10 times, and then washed three times, finally resuspended in buffer (added 0.04% BSA in PBS). After removing dead cells in suspensions by flow cytometry, the process of single‐cell RNA‐seq following the standard instructions.
(§2) The generation of raw counts matrices was accomplished using CellRanger software, version 6.0.0, referencing the GRCm38 mouse genome. To attain a data set purified of doublets, the Scrublet software was employed. Subsequently, the filtered counts matrices underwent loading into the R software (version 4.0.3), facilitated by the Seurat package. Cells were meticulously curated to exclude those expressing either an excessive (>7000) or an insufficient (<200) number of genes, or presenting high mitochondrial counts (>20%). The raw data were then subjected to normalization using the LogNormalize method. The selection of the top 2000 highly variable genes was carried out with Seurat's FindVariableFeatures function, applying the vst method as the basis for further analysis. To harmonize the batch effects, the IntegrateData function in Seurat was employed. Dimensionality reduction was realized through Principal Component Analysis (PCA), with the leading 30 principal components (PCs) forming the basis for Uniform Manifold Approximation and Projection (UMAP) performance. Cluster identification ensued using Seurat's FindClusters function, setting the resolution at 0.5. Marker gene elucidation was achieved using the differential expression analysis through the Wilcox rank‐sum test, as implemented in the FindAllMarkers function (fold change≥2 and adjusted P≤0.05). Cell clusters underwent annotation against known cell type markers to ascertain their identity. Akin analyses focusing on subclusters of Kupffer cells and Neutrophils were conducted applying a similar methodological framework. Recognition of differentially expressed genes between two groups was facilitated by the Wilcox rank‐sum test via Seurat's FindMarkers function (fold change≥2 and adjusted P≤0.05). Data visualization was executed utilizing the ggplot2 package within the R software. Functional annotations and pathway enrichment analyses, considering the Gene Ontology (GO), were performed with the clusterProfiler package, deeming terms statistically significant at a P≤0.05.

mouse liver cells = assay: scRNA-seq of liver after vector injection; assay type: in vivo
Experimental: as §1
as §2, with “Akin analyses focusing on subclusters of Kupffer cells and Neutrophils were conducted applying a similar methodological framework. Recognition of differentially expressed genes between two groups was facilitated by the Wilcox rank‐sum test via Seurat's FindMarkers function (fold change≥2 and adjusted P≤0.05). Data visualization was executed utilizing the ggplot2 package within the R software. Functional annotations and pathway enrichment analyses, considering the Gene Ontology (GO), were performed with the clusterProfiler package, deeming terms statistically significant at a P≤0.05.” left out

## CCCCCCCC/C=C\CCCCCCCC(=O)OCC(C[N+](C)(C)C)OC(=O)CCCCCCC/C=C\CCCCCCCC (stereo not shown) [DOTAP]
Mouse lung cells; lung scRNA-seq subclustering
  alveolar macrophages distributed in the Sirpa+ cluster: 73%
Mouse lung cells; lung, vs untreated, total number of DEGs
  differentially expressed genes in lung neutrophils: 18
Mouse lung cells; lung, vs untreated, total number of genes
  differentially expressed genes in alveolar macrophages: 12
Mouse lung cells; vs untreated group
  change in cellular composition of lung: sharp increase in the number of neutrophils and alveolar macrophages and a decrease in the number of immune cells and endothelial cells
Mouse liver cells; liver, vs untreated (NS), total number of genes
  differentially expressed genes in Kupffer cells: 7
Mouse liver cells; liver, vs untreated, total number of DEGs
  differentially expressed genes in liver neutrophils: 45
Mouse liver cells; vs normal control (saline-injected)
  change in cellular composition of liver: sharp increase in the number of neutrophils and a decrease in the number of immune cells
